One substance from publication PMC8062632, “Structural studies of phosphorylation-dependent interactions between the V2R receptor and arrestin-2” (Nature Communications, 2021) can be followed below.

Assay in all cases: arrestin2 recruitment BRET assay (V2R-Rluc / arrestin2-YFP)
What all share (type): cell-based

In experiment [1] the test system is V2R-S357A mutant (V2Rpp-3 site). To be noted: HEK293 cells, 37 °C, 10 min, normalized to maximal response of V2R-WT. The procedure: (§1) After 24 h of transfection, the cells were detached and distributed into 96-well plates at a density of ~25,000 cells per well. After another 24 h incubation at 37 °C, the cells were washed twice with Tyrode’s buffer (140 mM NaCl, 2.7 mM KCl, 1 mM CaCl2, 12 mM NaHCO3, 5.6 mM D-glucose, 0.5 mM MgCl2, 0.37 mM NaH2PO4, and 25 mM HEPES, pH = 7.4) and incubated with vehicle or different concentration ligands (Argipressin) at 37 °C for 10 min Luciferase substrate coelenterazine-h was added at a final concentration of 5 μM before light emissions were recorded using a Mithras LB940 microplate reader (Berthold Technologies) equipped with BRET filter sets. The BRET signal was determined by calculating the ratio of the light intensity emitted by YFP (530/20 nm) over the light intensity emitted by Rluc (485/20 nm). Source data are provided in a Source Data file.
(§2) Supplementary Fig. 14. Surface expression and arrestin2 recruitment toward different V2R phosphor- […]
(§3) a-b). Elisa experiments to assay the expression levels of the wild type and indicated mutants of V2R or V2R-Rluc in HEK293 cells. Data from three independent experiments (n=3) are presented as mean ± SD. Statistical differences between WT and mutations were determined by two-sided one-way ANOVA with Tukey test. “ns”: the […]
(§4) c). The vasopressin-induced arrestin2 recruitment to different V2R phospho-deficient mutants were compared with V2R-WT, examined by BRET assay in a concentration dependent manner. n = 3 biologically independent replicates were examined for three independent experiments. Data (means ± SEM) of each mutant were normalized to […]
(§5) maximal response of V2R-WT. d). Statistical analysis of the Emax and pEC50 of vasopressin induced arrestin2 recruitment to V2R WT or V2R […]

In experiment [2] the test system is V2R-S363A/S364A (V2Rpp-6-7 site). The note with it: HEK293 cells, 37 °C, 10 min, normalized to maximal response of V2R-WT. The procedure:
as §1, §2, §3, §4, §5

The next experiment relates to V2R-T360A (V2Rpp-4 site). The note with it: HEK293 cells, 37 °C, 10 min, normalized to maximal response of V2R-WT. As to the method: as §1, §2, §3, §4, §5
The subject of experiment [3] is wild-type V2R and V2R mutants. The note with it: HEK293 cells; different V2R mutants compared with wild-type V2R; 37 °C, 10 min. As to the method:
as §1, §2, §3, §4, §5

Take vasopressin: the “Emax of arrestin2 recruitment compared to that of wild-type V2R” value in experiment [1] is listed as 60%; in experiment [2] it was “approximately 30%”; with V2R-T360A (V2Rpp-4 site) it was “approximately 30%”. Besides, the “EC50 of vasopressin-induced V2R-arrestin2 interaction” value in experiment [3] was “similar”.
